# Entries after “also recorded” stand apart in the source; their conditions may differ. Where two headings read alike, the source gives them in different places.
# Key:
# C. parvum [1] = assay: In vitro anti-Cryptosporidium activity in infected HCT-8 cells (immunofluorescence assay); type: cell-based, Cryptosporidium parvum; conditions: for effect on in vitro proliferation and viability of C. parvum: 25 μM, added immediately after infection, 48 h of culture, vs untreated parasites; for EC50: Cryptosporidium parvum; for Selectivity index (CC50/EC50): HCT-8 CC50 / anti-C. parvum EC50; for effect on proliferation of intracellular C. parvum in HCT-8 cells: varying concentrations, 0 h or 2 h PI, analysed 48 h PI, vs infected cultures without compound
# Experimental: Once confluent, the cells were infected with 10^5 freshly excysted C. parvum sporozoites per well, immediately followed by the addition of anti-CpPyK compounds (reconstituted in DMSO) to one set of wells. Control infected cells were treated with DMSO volumes equivalent to those used for the compound-treated cultures. Paromomycin reconstituted in distilled sterile water, served as a positive control at a concentration of 200 μM. […] Briefly, the medium was removed from the culture wells, and the cells were washed two times with PBS before fixation with pre-chilled methanol-acetic acid (9:1) for 5 min at room temperature. Residual fixative was removed by rinsing the wells with PBS. Cells were rehydrated and permeabilized by washing twice with a buffer containing 0.1% Triton X-100, 0.35 M NaCl, and 0.13 M Tris-base, pH 7.6. Normal goat serum (5% in PBS) was used as a blocking agent, and the cell monolayer was stained with a fluorescein-labeled anti-C. parvum polyclonal antibody (Sporo-Glo™; Waterborne, Inc.) overnight at 4°C. The stained cells were washed twice with PBS followed by the addition of 200 μl water to each well. Plates were then imaged with an inverted fluorescence microscope using a 20× objective. The fluorescence generated by intracellular C. parvum parasites was quantified from nine microscopic fields per well of a 96-well plate using the batch process function in ImageJ version v1.50 (NIH, United States) after setting a threshold for the detection of parasites. Control wells with uninfected monolayers were included for background subtraction. Experiments were performed in triplicate and repeated at least three times.
# One set of wells with confluent HCT-8 cells received CpPyK inhibitors immediately after C. parvum infection, while the same compounds were added to the other set of wells 2 h post-infection (PI). Control infected cells were treated with varying volumes of DMSO equivalent to the ones used for the compound-treated cultures. Cell monolayers were processed for immunofluorescence analysis after 48 h of incubation as described above. Samples were run in triplicate and three independent assays were performed. EC50 values were calculated using non-linear regression analysis of the mean dose-response curve data in GraphPad PRISM® v8.
# C. parvum [2] = assay: Histopathology of distal small intestine of C. parvum-infected IFN-γ KO mice; type: in vivo, Cryptosporidium parvum; conditions: sacrificed day 11 PI
# Experimental: (§1) Eight weeks old male interferon-gamma knockout (IFN-γ KO) mice (B6.129S7-Ifng^TM1Ts/J) were purchased from The Jackson Laboratory, United States, and allowed to quarantine and acclimatize for 1 week before the commencement of experiments. Before the start of the infection assays in mice, the tolerability of each inhibitor was determined by daily oral gavage with varying dosages (0–10 mg/kg mouse bodyweight) in groups of mice (n = 3 mice per group) for 8 days. During this period, mice were monitored daily for any changes in physical and mental activity, feeding, body weight, body temperature, fur condition, and body posture. […] Mice were divided into infected and uninfected groups (n = 3 mice per group) and each individual mouse was housed in a separate cage lined with sterile gauze bedding. Each mouse from the infected group was infected by oral gavage administration of 10^4 C. parvum AUCP-1 isolate oocysts suspended in 50 μl of PBS. Beginning day 3 PI, groups of mice were orally treated with CpPyK inhibitors (at the specified doses), sham (100 μl of 5% DMSO in PBS), or 1,000 mg/kg paromomycin (in sterile water) once daily for a total of 8 days. Fecal pellets were collected daily in individual sterile 15 ml tubes, and submerged in an equivalent volume of PBS containing a cocktail of penicillin (100 units/ml), streptomycin (100 μg/ml), chloramphenicol (34 μg/ml), and amphotericin (0.25 μg/ml), and stored at 4°C until use. Three independent replicate infection assays were performed. Mice were sacrificed at day 11 PI, and 5 cm of the distal small intestine just anterior to the cecum was resected and submerged in 10% neutral buffered formalin and submitted for histopathological processing in the Comparative Biosciences Histology Laboratory at the University of Illinois at Urbana-Champaign. Briefly, intestinal tissues preserved in 10% neutral buffered formalin were washed in 70% ethanol, embedded in paraffin, and sectioned transversely at a thickness of 5 μm. Sections were stained with hematoxylin and eosin. The slides were imaged using a Zeiss microscope fitted with a color camera.
# C. parvum [3] = assay: In vivo efficacy in C. parvum-infected IFN-γ KO mice, fecal oocysts load by qPCR; design: species or system Cryptosporidium parvum; conditions: for relative potency among the treatments (oocysts load): 2.5 mg/kg NSC638080, NSC303244, NSC252172, 5 mg/kg NSC234945, paromomycin 1,000 mg/kg; for reduction in oocysts load compared to untreated mice / oocysts load compared to untreated mice: 10 mg/kg oral once daily; for reduction in oocysts load compared to untreated mice: day 9 PI; for oocysts load compared to untreated mice / potency, fold higher than paromomycin (1,000 mg/kg): day 10 PI; for potency, fold higher than paromomycin (1,000 mg/kg): 10 mg/kg
# Experimental: as §1
# DNA was isolated from 250 mg of feces collected from individual mice using the QIAamp® PowerFecal® Pro DNA kit (Qiagen, United States) following the manufacturer’s protocol. Oocysts load per gram of feces was measured by quantitative real time PCR (qPCR) analysis of the Cp18s rRNA gene (GenBank accession number AF164102) using gene-specific primers: 5′-[…]-3′ (Forward) and 5′-[…]-3′ (Reverse), described previously ([Parr et al., 2007]). To generate a quantification standard curve, fecal samples were obtained from uninfected mice and spiked with 10^8 C. parvum oocysts per gram of feces, followed by isolation of DNA as described above. Ten-fold serial dilutions of the extracted DNA were made and used as quantification standards for qPCR. C. parvum oocysts load quantification for the test mice was performed using DNA samples from the infected feces. Each 20 μl qPCR reaction contained 10 μl of PowerUp™ SYBR™ Green Master Mix (Applied Biosystems, United States), 500 nM of each primer, and 2 μl of DNA template. After 2 min of initial denaturation at 95°C, 40 cycles of denaturation at 95°C for 15 sec and annealing/extension at 60°C for 1 min were performed in a 7500 Real-Time PCR System (Applied Biosystems, United States). The oocyst load per gram of feces was derived by the 7500-system software using the generated quantification standard curves (Supplementary Figure 1).
# [4] = ref https://pubchem.ncbi.nlm.nih.gov, cited from earlier work; for Polar surface area: topological
# [5] = Physicochemical properties adapted from PubChem; conditions: based on Supplementary Table 2 properties
# Description: Supplementary Table S2. Physicochemical properties of identified CpPyK inhibitors (Adapted from: https://pubchem.ncbi.nlm.nih.gov).
# NSC Molecular Molecular Number of Number of Number of Polar number IUPAC name formula weight cLog(p) Hydrogen bond Hydrogen bond rotatable surface donors acceptors bonds area (Å²) […]
# [6] = HCT-8, read-out: Anti-C. parvum EC50, 0 h PI
# [7] = HCT-8, read-out: Anti-C. parvum EC50, 2 h PI
# [8] = 10 mg/kg daily oral from day 3 PI
# [9] = 2.5 mg/kg oral once daily from day 3 PI for 8 days
# [10] = 2.5 mg/kg daily oral from day 3 PI
SMILES,effect on in vitro proliferation and viability of C. parvum (C. parvum [1]),EC50 (C. parvum [1]; [6]),EC50 (C. parvum [1]; [7]),Selectivity index (CC50/EC50) (C. parvum [1]),effect on proliferation of intracellular C. parvum in HCT-8 cells (C. parvum [1]),"intestinal pathology (histology, distal small intestine) (C. parvum [2]; [8])",relative potency among the treatments (oocysts load) (C. parvum [3]),oocysts load by day 9 PI vs other treatments and untreated group (C. parvum [3]; 5 mg/kg oral once daily from day 3 PI),load of C. parvum oocysts shed in feces (C. parvum [3]; 5 mg/kg oral once daily from day 3 PI for 8 days),reduction in oocysts load compared to untreated mice (C. parvum [3]),oocysts load compared to untreated mice (C. parvum [3]),"potency, fold higher than paromomycin (1,000 mg/kg) (C. parvum [3])",Number of Hydrogen bond acceptors [4],Number of Hydrogen bond donors [4],Polar surface area [4],conformity to Lipinski's and Veber's rules for drug-likeness [5],load of C. parvum oocysts shed in feces (C. parvum [3]; [9]),"intestinal pathology (histology, distal small intestine) (C. parvum [2]; [10])"
"c1ccc(-c2nnc(-c3ccccn3)[nH]2)nc1 [NSC234945, 2-(3-pyridin-2-yl-1H-1,2,4-triazol-5-yl)pyridine]",significant inhibitory effect,86 µM,89.6 µM,5.02,significant (P < 0.05) concentration-dependent inhibitory effect,best efficacy; also recorded: notably reduced pathological changes,highest potency,significantly (P < 0.05) lower oocysts loads,significant reduction,about threefold reduction in oocysts load,about ninefold lower oocysts load,about 2.5 fold,4,1,67.4 Å²,conform,,
"CCOc1ccc(/C=C2\CCc3ccccc3C2=O)cc1 [NSC252172, (2E)-2-[(4-ethoxyphenyl)methylidene]-3,4-dihydronaphthalen-1-one]",significant inhibitory effect,17.6 µM,18.7 µM,15.10,significant (P < 0.05) concentration-dependent inhibitory effect,notably reduced pathological changes,,,,about threefold reduction in oocysts load,about ninefold lower oocysts load,about 2.5 fold,2,0,26.3 Å²,conform,significant reduction,
"Cc1cc2c(c(C#N)c1C)NC=NC2C (centres unmarked) [NSC303244, 4,6,7-trimethyl-1,4-dihydroquinazoline-8-carbonitrile]",significant inhibitory effect,10.3 µM,15.8 µM,64.15,significant (P < 0.05) concentration-dependent inhibitory effect,,,,,,,,2,1,48.2 Å²,conform,significant reduction,reduced intestinal pathology
"N#C/C(=C\c1cc(O)c(O)c(O)c1)C(N)=O [NSC638080, (E)-2-cyano-3-(3,4,5-trihydroxyphenyl)prop-2-enamide]",significant inhibitory effect,10.9 µM,14.7 µM,68.96,significant (P < 0.05) concentration-dependent inhibitory effect,,least efficacy,,,,,,5,4,128 Å²,conform,significant reduction,reduced intestinal pathology

# — publication PMC8761912, “Cryptosporidium parvum Pyruvate Kinase Inhibitors With in vivo Anti-cryptosporidial Efficacy” (Frontiers in Microbiology, 2022)
